# Data from PubChem BioAssay AID1259408 (Genetic Toxicology Data Bank (GENE-TOX), 2018).
# Calls of active or inactive are those of the source. How the calls were made is not given here.
# System: GENE-TOX genotoxicity assays, various organisms and cells
# Assay: GENE-TOX mutagenicity studies
# Details: for call: Assay Type: In vivo carcinogenicity studies
# [1] = Species/Cell Type: Salmonella typhimurium (one or more of the five standard strains: TA98, TA100, TA1535, TA1537, and TA1538), Assay Type: Histidine reverse gene mutation, Ames assay, Assay Code: SALT, Evaluation Type: Evaluation A (Pre-1980)
# [2] = Species/Cell Type: Tradescantia species, Assay Type: Gene mutation, Assay Code: TRM+D, Dose Response: With dose response, Evaluation Type: Evaluation A (Pre-1980)
# [3] = Species/Cell Type: Escherichia coli polA (W3119 vs P3478), Assay Type: Rec-assay, DNA effects (bacterial DNA repair), Assay Code: RE1+, Evaluation Type: Evaluation A (Pre-1980)
# [4] = Species/Cell Type: Neurospora crassa, Assay Type: Forward gene mutation, Assay Code: NEF+, Evaluation Type: Evaluation A (Pre-1980)
# [5] = Species/Cell Type: Nonhuman, Assay Code: CCG+L, Evaluation Type: Evaluation A (Pre-1980)
# [6] = Species/Cell Type: Salmonella typhimurium (one or more of the five standard strains: TA98, TA100, TA1535, TA1537, and TA1538), Assay Type: Histidine reverse gene mutation, Ames assay, Assay Code: SAL+, Evaluation Type: Evaluation A (Pre-1980)
# [7] = Species/Cell Type: Nonhuman, Assay Type: Sister-chromatid exchange (SCE) in vitro, Assay Code: SC2+, Evaluation Type: Evaluation B (Post-1980)
# [8] = Species/Cell Type: Saccharomyces cerevisiae, Assay Type: Mitotic recombination or gene conversion, Assay Code: YEH-, Evaluation Type: Evaluation A (Pre-1980)
# [9] = Species/Cell Type: Saccharomyces cerevisiae, Assay Type: Reverse gene mutation, Assay Code: YERT, Evaluation Type: Evaluation A (Pre-1980)
# [10] = Species/Cell Type: Human diploid fibroblasts, Assay Type: Unscheduled DNA synthesis (UDS) in vitro, DNA effects, Assay Code: UDH-*, Activation: With metabolic activation, Evaluation Type: Evaluation A (Pre-1980)
# [11] = Species/Cell Type: Mouse, Sex: Male, Assay Type: Sperm morphology, Assay Code: SPI-, Evaluation Type: Evaluation A (Pre-1980)
# [12] = Species/Cell Type: Mammalian polychromatic erythrocytes, Assay Type: Micronucleus test, chromosome aberrations, Assay Code: MNT+U, Dose Response: Unconfirmed positive response, Evaluation Type: Evaluation B (Post-1980)
# [13] = Species/Cell Type: Nonhuman, Assay Type: Sister-chromatid exchange (SCE) in vitro, Assay Code: SC2T, Evaluation Type: Evaluation B (Post-1980)
smiles,measurement,setting,value
Oc1cc(Cl)c(-c2cc(Cl)ccc2Cl)cc1Cl,mutagenic call,[1],no conclusion
FC(F)Cl,mutagenic call,[2],active; positive
ONc1cccc2ccccc12,mutagenic call,[3],active; positive
same,mutagenic call,[4],active; positive
same,call,[5],active; positive
same,mutagenic call,"Species/Cell Type: Saccharomyces cerevisiae, Assay Type: Mitotic recombination or gene conversion, Assay Code: YEH+, Evaluation Type: Evaluation A (Pre-1980)",active; positive
same,mutagenic call,[6],active; positive
same,mutagenic call,"Species/Cell Type: Salmonella typhimurium, Assay Type: Forward and reverse gene mutation, host-mediated assay, Assay Code: HMA-, Evaluation Type: Evaluation A (Pre-1980)",inactive; negative
C1C2OC2C2OC12 (stereo not given),mutagenic call,[4],active; positive
O=[N+]([O-])c1ccc(-c2ccccc2)cc1,mutagenic call,[3],active; positive
same,mutagenic call,"Species/Cell Type: Neurospora crassa, Assay Type: Aneuploidy, chromosome aberrations, Assay Code: NEN-, Evaluation Type: Evaluation A (Pre-1980)",inactive; negative
same,call,[5],active; positive
same,mutagenic call,[7],active; positive
same,mutagenic call,"Species/Cell Type: Nonhuman, Assay Type: Sister-chromatid exchange (SCE) in vivo, Assay Code: SC3+D, Dose Response: With dose response, Evaluation Type: Evaluation B (Post-1980)",active; positive
same,mutagenic call,[8],inactive; negative
same,mutagenic call,[6],active; positive
same,mutagenic call,"Species/Cell Type: Salmonella typhimurium, Assay Type: Forward and reverse gene mutation, host-mediated assay, Assay Code: HMA+, Evaluation Type: Evaluation A (Pre-1980)",active; positive
same,mutagenic call,"Species/Cell Type: Syrian hamster embryo (SA7/SHE) cells, Assay Type: Cell transformation, viral enhanced, Assay Code: CT7+, Evaluation Type: Evaluation A (Pre-1980)",active; positive
same,mutagenic call,"Species/Cell Type: Syrian hamster embryo (SHE) cells, Assay Type: Cell transformation, clonal assay, Assay Code: CTC+, Evaluation Type: Evaluation A (Pre-1980)",active; positive
Oc1c(Cl)cc(Cl)c(Cl)c1Cc1c(O)c(Cl)cc(Cl)c1Cl,mutagenic call,"Species/Cell Type: Mammalian polychromatic erythrocytes, Assay Type: Micronucleus test, chromosome aberrations, Assay Code: MNTT, Evaluation Type: Evaluation B (Post-1980)",no conclusion
COC(=O)CCN1CC1,mutagenic call,"Species/Cell Type: Schizosaccharomyces pombe, Assay Type: Reverse gene mutation, Assay Code: YEZ+, Evaluation Type: Evaluation A (Pre-1980)",active; positive
Nc1c[nH]c(=O)[nH]c1=O,mutagenic call,"Species/Cell Type: Allium cepa, Assay Type: Chromosome aberrations, Assay Code: ALC+, Evaluation Type: Evaluation A (Pre-1980)",active; positive
CN(C)Cc1cc(Br)ccc1OCC(=O)N/N=C/c1ccccc1O,mutagenic call,[9],no conclusion
COc1cc2c(c3oc(=O)c4c(c13)CCOC4=O)[C@@H]1CCO[C@@H]1O2,mutagenic call,"Species/Cell Type: Bacillus subtilis (H17 vs M45), Assay Type: Rec-assay, spot test, DNA effects (bacterial DNA repair), Assay Code: REW-, Evaluation Type: Evaluation A (Pre-1980)",inactive; negative
same,mutagenic call,"Species/Cell Type: Chinese hamster lung (V79) cells, Assay Type: Forward gene mutation at the HPRT or ouabain locus, Assay Code: V79-*, Activation: With metabolic activation, Evaluation Type: Evaluation A (Pre-1980)",inactive; negative
same,mutagenic call,[10],inactive; negative
same,mutagenic call,"Species/Cell Type: Nonhuman, Assay Type: Sister-chromatid exchange (SCE) in vitro, Assay Code: SC2+D*, Activation: With metabolic activation, Dose Response: With dose response, Evaluation Type: Evaluation B (Post-1980)",active; positive
same,mutagenic call,"Species/Cell Type: Rat primary hepatocytes, Assay Type: Unscheduled DNA synthesis (UDS) in vitro, DNA effects, Assay Code: UDP-, Evaluation Type: Evaluation A (Pre-1980)",inactive; negative
same,mutagenic call,[1],no conclusion
COc1ccc(/C=N/NC(=O)COc2ccc(Br)cc2CN2CCOCC2)cc1,mutagenic call,[9],no conclusion
CC(Br)Br,mutagenic call,"Species/Cell Type: Drosophila melanogaster, Assay Type: Sex-linked recessive lethal gene mutation, Assay Code: SRLT, Evaluation Type: Evaluation A (Pre-1980)",no conclusion
same,mutagenic call,[3],active; positive
same,mutagenic call,"Species/Cell Type: Tradescantia species, Assay Type: Gene mutation, Assay Code: TRM-, Evaluation Type: Evaluation A (Pre-1980)",inactive; negative
Cc1cc(-c2cc(C)c(N)c(C)c2)cc(C)c1N,mutagenic call,[10],inactive; negative
same,mutagenic call,"Species/Cell Type: Human, Assay Type: Sister-chromatid exchange (SCE) in vitro, Assay Code: SC1-, Evaluation Type: Evaluation B (Post-1980)",inactive; negative
same,mutagenic call,"Species/Cell Type: Mammalian polychromatic erythrocytes, Assay Type: Micronucleus test, chromosome aberrations, Assay Code: MNT+, Evaluation Type: Evaluation A (Pre-1980)",active; positive
same,mutagenic call,[11],inactive; negative
same,mutagenic call,[7],active; positive
same,mutagenic call,"Species/Cell Type: Nonhuman, Assay Type: Sister-chromatid exchange (SCE) in vivo, Assay Code: SC3T, Evaluation Type: Evaluation B (Post-1980)",no conclusion
same,mutagenic call,"Species/Cell Type: Salmonella typhimurium (one or more of the five standard strains: TA98, TA100, TA1535, TA1537, and TA1538), Assay Type: Histidine reverse gene mutation, Ames assay, Assay Code: SAL-, Evaluation Type: Evaluation A (Pre-1980)",inactive; negative
same,mutagenic call,[2],active; positive
CCCCCCN(N=O)/C(N)=N/[N+](=O)[O-],mutagenic call,[1],no conclusion
C=CC(O)c1ccc(OC)cc1 (stereo not given),mutagenic call,[1],no conclusion
OCc1c2ccccc2cc2c1ccc1ccccc12,mutagenic call,"Species/Cell Type: Mouse prostate cells, Assay Type: Cell transformation, Assay Code: CTM+, Evaluation Type: Evaluation A (Pre-1980)",active; positive
OCCN1CCN(CCCN2c3ccccc3Sc3ccc(C(F)(F)F)cc32)CC1,mutagenic call,"Species/Cell Type: Mammalian polychromatic erythrocytes, Assay Type: Micronucleus test, chromosome aberrations, Assay Code: MNT+, Evaluation Type: Evaluation B (Post-1980)",active; positive
Nc1nc(-c2cc([N+](=O)[O-])c[nH]2)cs1,mutagenic call,[1],no conclusion
CC1(C)C(C=C(Cl)Cl)C1C(=O)OCc1cccc(Oc2ccccc2)c1 (stereo not given),mutagenic call,"Species/Cell Type: Human diploid fibroblasts, Assay Type: Unscheduled DNA synthesis (UDS) in vitro, DNA effects, Assay Code: UDH-, Evaluation Type: Evaluation A (Pre-1980)",inactive; negative
same,mutagenic call,[8],inactive; negative
Cc1cc2ccccc2oc1=O,mutagenic call,"Species/Cell Type: Allium cepa, Assay Type: Chromosome aberrations, Assay Code: ALC+D, Dose Response: With dose response, Evaluation Type: Evaluation A (Pre-1980)",active; positive
c1nnc(NCNc2nncs2)s1,mutagenic call,[12],active; positive
N[C@@H]1CONC1=O,mutagenic call,"Species/Cell Type: Escherichia coli polA (W3119 vs P3478), Assay Type: Rec-assay, DNA effects (bacterial DNA repair), Assay Code: RE1-, Evaluation Type: Evaluation A (Pre-1980)",inactive; negative
C=CC(=O)c1ccc2c(c1)OCO2,mutagenic call,[1],no conclusion
[O]=[W](=[O])([OH])[OH],mutagenic call,"Species/Cell Type: Human lymphocytes, Assay Type: Sister-chromatid exchange (SCE) in vitro, Assay Code: SCLT, Evaluation Type: Evaluation B (Post-1980)",no conclusion
same,mutagenic call,"Species/Cell Type: Human, Assay Type: Sister-chromatid exchange (SCE) in vitro, Assay Code: SC1T, Evaluation Type: Evaluation B (Post-1980)",no conclusion
CC(=O)Nc1nnc(-c2ccc([N+](=O)[O-])o2)s1,mutagenic call,[6],active; positive
O=C(CCl)c1ccccc1,mutagenic call,"Species/Cell Type: Drosophila melanogaster, Assay Type: Sex-linked recessive lethal gene mutation, Assay Code: SRL-, Evaluation Type: Evaluation A (Pre-1980)",inactive; negative
C=CC(=O)OC,mutagenic call,[12],active; positive
CC1=C(/C=C/C(C)=C/C=C/C(C)=C/CO)C(C)(C)CCC1,mutagenic call,[11],inactive; negative
same,mutagenic call,[13],no conclusion
Cc1ccc2ccc3c4ccccc4ccc3c2c1,mutagenic call,"Species/Cell Type: Salmonella typhimurium (one or more of the five standard strains: TA98, TA100, TA1535, TA1537, and TA1538), Assay Type: Histidine reverse gene mutation, Ames assay, Assay Code: SAL+*, Activation: With metabolic activation, Evaluation Type: Evaluation A (Pre-1980)",active; positive
C[As+](C)(C)CC(=O)[O-],mutagenic call,[13],no conclusion
Cc1ccccc1N,mutagenic call,[3],active; positive
same,mutagenic call,"Species/Cell Type: Fischer rat embryo (RLV/1706) cells, Assay Type: Cell transformation, viral enhanced, Assay Code: CTR+, Evaluation Type: Evaluation A (Pre-1980)",active; positive
same,mutagenic call,"Species/Cell Type: Mammalian polychromatic erythrocytes, Assay Type: Micronucleus test, chromosome aberrations, Assay Code: MNTT, Evaluation Type: Evaluation A (Pre-1980)",no conclusion
same,mutagenic call,[11],inactive; negative
same,call,"Species/Cell Type: Nonhuman, Assay Code: CCG+, Evaluation Type: Evaluation A (Pre-1980)",active; positive
same,mutagenic call,"Species/Cell Type: Nonhuman, Assay Type: Sister-chromatid exchange (SCE) in vitro, Assay Code: SC2+D, Dose Response: With dose response, Evaluation Type: Evaluation B (Post-1980)",active; positive
same,mutagenic call,"Species/Cell Type: Nonhuman, Assay Type: Sister-chromatid exchange (SCE) in vivo, Assay Code: SC3+, Evaluation Type: Evaluation B (Post-1980)",active; positive
same,mutagenic call,[8],inactive; negative
same,mutagenic call,[1],no conclusion
